Results: US11897849B1, “N′-(2-(5-phenyl-1,3,4-oxadiazol-2-ylthio)acetoxy)-1-naphthimidamide as antimicrobial compound” (KING FAISAL UNIVERSITY, priority 2023, dated 2024)

Experiments:
Escherichia coli = assay: Agar plate disc-diffusion, antibacterial; type: cell-based
Procedure: (§1) The agar plate disc-diffusion method was applied. […] The discs were then placed onto the surface of agar plates (nutrient agar for bacteria and Sabouraud's dextrose agar for fungi) seeded with the test organism. Each plate contained 15 of the agar medium, previously seeded with 0.2 mL of the broth culture of each organism pre-grown for 18 hours. The plates were incubated at 37° C. for 48 hours and 72 hours for fungi. The inhibition zones were measured in mm. Discs impregnated with DMSO were used as a control, and their inhibition zone was subtracted from the tested compound's actual inhibition zone.

Staphylococcus aureus = assay: Agar plate disc-diffusion, antibacterial; type: cell-based
Procedure: as §1

Pseudomonas aeruginosa = assay: Agar plate disc-diffusion, antibacterial; type: cell-based
Procedure: as §1

Bacillus cereus = assay: Agar plate disc-diffusion, antibacterial; type: cell-based
Procedure: as §1

[1] = system: Chrysosporium keratinophilum; assay: Agar plate disc-diffusion, antifungal; type: cell-based
Procedure: The agar plate disc-diffusion method was applied. Sterilized filter papers (6 mm in diameter) were wetted with 10 μL of a solution of N′-(2-(5-phenyl-1,3,4-oxadiazol-2-ylthio)acetoxy)-2-naphthimidamide (3) to be tested, containing 10 mg/mL in DMSO, and the discs were allowed to air dry. The discs were then placed onto the surface of agar plates (nutrient agar for bacteria and Sabouraud's dextrose agar for fungi) seeded with the test organism. Each plate contained 15 of the agar medium, previously seeded with 0.2 mL of the broth culture of each organism pre-grown for 18 hours. The plates were incubated at 37° C. for 48 hours and 72 hours for fungi. The inhibition zones were measured in mm. Discs impregnated with DMSO were used as a control, and their inhibition zone was subtracted from the tested compound's actual inhibition zone.

Aspergillus flavus = assay: Agar plate disc-diffusion, antifungal; type: cell-based
Procedure: as §1

[2] = A = concentration of comp. = 10,000 μL
[3] = B = concentration of comp. = 30.000 μL
[4] = C = concentration of comp. = 50,000 μL
[5] = column A (key only in Table 1: 10,000 μL)
[6] = column B (key only in Table 1: 30.000 μL)
[7] = column C (key only in Table 1: 50,000 μL)

Compound: O=C(O)c1cn(C2CC2)c2cc(N3CCNCC3)c(F)cc2c1=O [Cip., ciprofloxacin, reference compound]
- inhibition zone (Escherichia coli; [2]): 30 mm
- inhibition zone (Escherichia coli; [3]): 39 mm
- inhibition zone (Escherichia coli; [4]): 60 mm
- inhibition zone (Staphylococcus aureus; [2]): 43 mm
- inhibition zone (Staphylococcus aureus; [3]): 44 mm
- inhibition zone (Staphylococcus aureus; [4]): 53 mm
- inhibition zone (Pseudomonas aeruginosa; [2]): 29 mm
- inhibition zone (Pseudomonas aeruginosa; [3]): 30 mm
- inhibition zone (Pseudomonas aeruginosa; [4]): 53 mm
- inhibition zone (Bacillus cereus; A = concentration of comp.): 29 mm
- inhibition zone (Bacillus cereus; [3]): 30 mm
- inhibition zone (Bacillus cereus; [4]): 42 mm

Compound: N/C(=N\OC(=O)CSc1nnc(-c2ccccc2)o1)c1cccc2ccccc12 [Compound 3, N′-(2-(5-phenyl-1,3,4-oxadiazol-2-ylthio)acetoxy)-1-naphthimidamide]
- inhibition zone [1, 5]: 29 mm
- inhibition zone [1, 6]: 37 mm
- inhibition zone [1, 7]: 43 mm
- inhibition zone (Aspergillus flavus; [5]): 15 mm
- inhibition zone (Aspergillus flavus; [6]): 22 mm
- inhibition zone (Aspergillus flavus; [7]): 30 mm
- melting point: 177 to 178 °C
- inhibition zone (Escherichia coli; [2]): 35 mm
- inhibition zone (Escherichia coli; [3]): 39 mm
- inhibition zone (Escherichia coli; [4]): 45 mm
- inhibition zone (Staphylococcus aureus; [2]): 29 mm
- inhibition zone (Staphylococcus aureus; [3]): 35 mm
- inhibition zone (Staphylococcus aureus; [4]): 44 mm
- inhibition zone (Pseudomonas aeruginosa; [2]): 22 mm
- inhibition zone (Pseudomonas aeruginosa; [3]): 30 mm
- inhibition zone (Pseudomonas aeruginosa; [4]): 37 mm
- inhibition zone (Bacillus cereus; A = concentration of comp.): 19 mm
- inhibition zone (Bacillus cereus; [3]): 26 mm
- inhibition zone (Bacillus cereus; [4]): 35 mm
